Series [1] in a line: refractive index (Na D-line) (dimensionless). The conditions noted are these: 298.15 K; 101.33 kPa; Liquid; Standard Abbe refractometry.
For series [2] the following is noted: Liquid; for mass density: 298.15 K, 101.33 kPa; for vapor or sublimation pressure: Ebulliometric method (Recirculating still).

Numbers after ± are expanded uncertainties.

Broadly, the refractive index is a measure of how strongly the sample bends light. By mass density is commonly meant the mass of a sample divided by its volume. In general, vapor or sublimation pressure refers to the equilibrium pressure above the liquid or solid.

Turning to `CC(C)CC(C)(C)C` [2,2,4-trimethylpentane], in series [1], the refractive index came to 1.38894 ± 0.00072. Moreover, in series [2], the mass density came to 687.79 ± 0.41 kg/m3. The entries for the “vapor or sublimation pressure” value in series [2] (330 K) and in series [2] (340 K) were 25.47 ± 0.14 kPa and 36.64 ± 0.19 kPa, respectively.

Take `CC(=O)C(C)C` [3-methyl-2-butanone]: the refractive index in series [1] is listed as 1.3862 ± 0.00072. The mass density in series [2] is listed as 799.55 ± 0.45 kg/m3. In addition, the “vapor or sublimation pressure” value in series [2] (330 K) is reported as 27.69 ± 0.16 kPa; in series [2] (340 K) it was 40.45 ± 0.2 kPa.

Take `CC(C)O` [propan-2-ol]: in series [1], the refractive index is on record as 1.37504 ± 0.00072. Besides, the mass density in series [2] worked out at 780.91 ± 0.31 kg/m3. For the same compound, the “vapor or sublimation pressure” value in series [2] (330 K) is 33.25 ± 0.19 kPa; in series [2] (340 K) it was 52.97 ± 0.26 kPa.

The values are drawn from the NIST ThermoML archive (doi:10.1016/j.fluid.2007.10.016).
